According to patent US10538555B2, “Macrocyclic inhibitors of the PD-1/PD-L1 and CD80(B7-1)/PD-L1 protein/protein interactions” (BRISTOL-MYERS SQUIBB COMPANY, priority 2014, dated 2020):
pIC50: −log10 of the molar value. Where two headings read alike, the source gives them in different places. Where a SMILES comes first, the peptide text is derived from it. Bridges are numbered along the chain shown (N, C = ends). [ ]: non-standard residue; d: D form. Phe(3,4,5-F3) = N[C@@H](Cc1cc(F)c(F)c(F)c1)C(=O)O; Phe(4-F) = N[C@@H](Cc1ccc(F)cc1)C(=O)O; NMeF = CN[C@@H](Cc1ccccc1)C(=O)O; NMehSer = CN[C@@H](CCO)C(=O)O; NMeNle = CCCC[C@H](NC)C(=O)O; dPip = O=C(O)[C@H]1CCCCN1; NMeA = CN[C@@H](C)C(=O)O; Orn = NCCC[C@H](N)C(=O)O; dNMeA = CN[C@H](C)C(=O)O

Biological target: T1, Human PD-L1/PD-1 (Homo sapiens, UniProt Q9NZQ7)
T1 construct: TVMV protease cleavage site (C); made in house; host or cells: HEK293T cells
T1 sequence (Q9NZQ7 with tags, fused parts or gaps): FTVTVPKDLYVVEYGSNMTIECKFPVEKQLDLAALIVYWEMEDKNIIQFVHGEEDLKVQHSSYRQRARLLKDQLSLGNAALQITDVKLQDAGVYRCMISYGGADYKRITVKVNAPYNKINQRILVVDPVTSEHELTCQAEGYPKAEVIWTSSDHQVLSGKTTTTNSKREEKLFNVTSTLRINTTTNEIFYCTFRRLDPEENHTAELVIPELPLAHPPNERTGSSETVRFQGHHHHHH
Experiment: HTRF Human PD-L1/PD-1 binding assay (PD-1-Ig/PD-L1-His)
Details: PD-L1-His 10 nM, PD-1-Ig 20 nM
In short: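 HTRF read-out (665/620 nm ratio) after 30 min equilibration with Eu-cryptate anti-Ig mAb (1 nM) and APC anti-His mAb (20 nM). Peptides preincubated 15 min with PD-L1-His (10 nM), then PD-1-Ig (20 nM) added for 15 min.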

[1] = class symbol, read-out: HTRF Human PD-L1/PD-1 Binding Assay IC50 Range
[2] = read-out: HTRF Human PD-L1/PD-1 Binding Assay IC50

CC(C)[C@@H]1NC(=O)[C@H](CCC(=O)O)NC(=O)[C@@H](C)N(C)C(=O)[C@H](C)N(C)C(=O)[C@H](Cc2ccccc2)N(C)C(=O)[C@H](Cc2cc(F)c(F)c(F)c2)NC(=O)CSC[C@@H](C(=O)NCC(N)=O)NC(=O)[C@H](CCCN)NC(=O)[C@H](Cc2ccc(O)cc2)NC(=O)[C@H](Cc2c[nH]c3ccccc23)NC(=O)[C@@H](C)N(C)C(=O)[C@H](Cc2ccc(O)cc2)NC(=O)[C@H](Cc2ccccc2)N(C)C1=O [Example 9194] ({CH2CO}-[Phe(3,4,5-F3)][NMeF][NMeA][dNMeA]EV[NMeF]Y[dNMeA]WY[Orn]CG-NH2; thioether N-13)
pIC50 [1]: 8.00 to 9.00

CC(C)[C@@H]1NC(=O)[C@H](CC(N)=O)NC(=O)[C@@H](C)N(C)C(=O)[C@H](C)N(C)C(=O)[C@H](Cc2ccccc2)N(C)C(=O)[C@H](Cc2cc(F)c(F)c(F)c2)NC(=O)CSC[C@@H](C(=O)NCC(N)=O)NC(=O)[C@H](CCCN)NC(=O)[C@H](Cc2ccc(O)cc2)NC(=O)[C@H](Cc2c[nH]c3ccccc23)NC(=O)[C@@H](C)N(C)C(=O)[C@H](Cc2ccc(O)cc2)NC(=O)[C@H](Cc2ccccc2)N(C)C1=O [Example 9195] ({CH2CO}-[Phe(3,4,5-F3)][NMeF][NMeA][dNMeA]NV[NMeF]Y[dNMeA]WY[Orn]CG-NH2; thioether N-13)
pIC50 [1]: 8.00 to 9.00

CC(C)[C@@H]1NC(=O)[C@H](CCC(N)=O)NC(=O)[C@@H](C)N(C)C(=O)[C@H](C)N(C)C(=O)[C@H](Cc2ccccc2)N(C)C(=O)[C@H](Cc2cc(F)c(F)c(F)c2)NC(=O)CSC[C@@H](C(=O)NCC(N)=O)NC(=O)[C@H](CCCN)NC(=O)[C@H](Cc2ccc(O)cc2)NC(=O)[C@H](Cc2c[nH]c3ccccc23)NC(=O)[C@@H](C)N(C)C(=O)[C@H](Cc2ccc(O)cc2)NC(=O)[C@H](Cc2ccccc2)N(C)C1=O [Example 9196] ({CH2CO}-[Phe(3,4,5-F3)][NMeF][NMeA][dNMeA]QV[NMeF]Y[dNMeA]WY[Orn]CG-NH2; thioether N-13)
pIC50 [2]: 8.35

CCCC[C@H]1C(=O)N[C@@H](Cc2ccc(O)cc2)C(=O)N2CCC[C@@H]2C(=O)N[C@@H](Cc2c[nH]c3ccccc23)C(=O)N[C@@H](Cc2ccc(O)cc2)C(=O)N[C@@H](CC(C)C)C(=O)N[C@H](C(=O)NCC(N)=O)CSCC(=O)N[C@@H](Cc2cc(F)c(F)c(F)c2)C(=O)N(C)[C@@H](Cc2ccccc2)C(=O)N(C)[C@@H](CCCC)C(=O)N2CCC[C@@H]2C(=O)N[C@@H](CC(=O)O)C(=O)N[C@@H](C(C)C)C(=O)N1C [Example 9213] ({CH2CO}-[Phe(3,4,5-F3)][NMeF][NMeNle][dP]DV[NMeNle]Y[dP]WYLCG-NH2; thioether N-13)
pIC50 [1]: 7.00 to 8.00

CCCC[C@H]1C(=O)N[C@@H](Cc2ccc(O)cc2)C(=O)N2CCCC[C@@H]2C(=O)N[C@@H](Cc2c[nH]c3ccccc23)C(=O)N[C@@H](Cc2ccc(O)cc2)C(=O)N[C@@H](CC(C)C)C(=O)N[C@H](C(=O)NCC(N)=O)CSCC(=O)N[C@@H](Cc2ccc(F)cc2)C(=O)N(C)[C@@H](Cc2ccccc2)C(=O)N(C)[C@@H](CCCC)C(=O)N2CCC[C@@H]2C(=O)N[C@@H](CC(=O)O)C(=O)N[C@@H](C(C)C)C(=O)N1C [Example 9214] ({CH2CO}-[Phe(4-F)][NMeF][NMeNle][dP]DV[NMeNle]Y[dPip]WYLCG-NH2; thioether N-13)
pIC50 [1]: 6.00 to 7.00

CCCC[C@H]1C(=O)N[C@@H](CCC(N)=O)C(=O)N2CCC[C@@H]2C(=O)N[C@@H](Cc2c[nH]c3ccccc23)C(=O)N[C@@H](Cc2ccc(O)cc2)C(=O)N[C@@H](CC(C)C)C(=O)N[C@H](C(=O)NCC(N)=O)CSCC(=O)N[C@@H](Cc2ccc(F)cc2)C(=O)N(C)[C@@H](Cc2ccccc2)C(=O)N(C)[C@@H](CCCC)C(=O)N2CCC[C@@H]2C(=O)N[C@@H](CC(=O)O)C(=O)N[C@@H](C(C)C)C(=O)N1C [Example 9215] ({CH2CO}-[Phe(4-F)][NMeF][NMeNle][dP]DV[NMeNle]Q[dP]WYLCG-NH2; thioether N-13)
pIC50 [1]: 7.00 to 8.00

CCCC[C@H]1C(=O)N[C@@H](CCC(N)=O)C(=O)N2CCCC[C@@H]2C(=O)N[C@@H](Cc2c[nH]c3ccccc23)C(=O)N[C@@H](Cc2ccc(O)cc2)C(=O)N[C@@H](CC(C)C)C(=O)N[C@H](C(=O)NCC(N)=O)CSCC(=O)N[C@@H](Cc2ccc(F)cc2)C(=O)N(C)[C@@H](Cc2ccccc2)C(=O)N(C)[C@@H](CCCC)C(=O)N2CCC[C@@H]2C(=O)N[C@@H](CC(=O)O)C(=O)N[C@@H](C(C)C)C(=O)N1C [Example 9216] ({CH2CO}-[Phe(4-F)][NMeF][NMeNle][dP]DV[NMeNle]Q[dPip]WYLCG-NH2; thioether N-13)
pIC50 [1]: 7.00 to 8.00

CCCC[C@H]1C(=O)N[C@@H](CCC(N)=O)C(=O)N2CCC[C@@H]2C(=O)N[C@@H](Cc2c[nH]c3ccccc23)C(=O)N[C@@H](Cc2ccc(O)cc2)C(=O)N[C@@H](CCCN)C(=O)N[C@H](C(=O)NCC(N)=O)CSCC(=O)N[C@@H](Cc2ccc(F)cc2)C(=O)N(C)[C@@H](Cc2ccccc2)C(=O)N(C)[C@@H](CCCC)C(=O)N2CCC[C@@H]2C(=O)N[C@@H](CC(=O)O)C(=O)N[C@@H](C(C)C)C(=O)N1C [Example 9217] ({CH2CO}-[Phe(4-F)][NMeF][NMeNle][dP]DV[NMeNle]Q[dP]WY[Orn]CG-NH2; thioether N-13)
pIC50 [1]: 6.00 to 7.00

CCCC[C@H]1C(=O)N[C@@H](CCC(N)=O)C(=O)N2CCCC[C@@H]2C(=O)N[C@@H](Cc2c[nH]c3ccccc23)C(=O)N[C@@H](Cc2ccc(O)cc2)C(=O)N[C@@H](CCCN)C(=O)N[C@H](C(=O)NCC(N)=O)CSCC(=O)N[C@@H](Cc2ccc(F)cc2)C(=O)N(C)[C@@H](Cc2ccccc2)C(=O)N(C)[C@@H](CCCC)C(=O)N2CCC[C@@H]2C(=O)N[C@@H](CC(=O)O)C(=O)N[C@@H](C(C)C)C(=O)N1C [Example 9218] ({CH2CO}-[Phe(4-F)][NMeF][NMeNle][dP]DV[NMeNle]Q[dPip]WY[Orn]CG-NH2; thioether N-13)
pIC50 [1]: 7.00 to 8.00

CCCC[C@H]1C(=O)N2CCC[C@@H]2C(=O)N[C@@H](CC(=O)O)C(=O)N[C@@H](C(C)C)C(=O)N(C)[C@@H](CCOC)C(=O)N[C@@H](Cc2ccc(O)cc2)C(=O)N2CCC[C@@H]2C(=O)N[C@@H](Cc2c[nH]c3ccccc23)C(=O)N[C@@H](Cc2ccc(O)cc2)C(=O)N[C@@H](CC(C)C)C(=O)N[C@H](C(=O)NCC(N)=O)CSCC(=O)N[C@@H](Cc2ccc(F)cc2)C(=O)N(C)[C@@H](Cc2ccccc2)C(=O)N1C [Example 9219] ({CH2CO}-[Phe(4-F)][NMeF][NMeNle][dP]DV[NMehSer](Me)Y[dP]WYLCG-NH2; thioether N-13)
pIC50 [1]: 6.00 to 7.00

CCCC[C@H]1C(=O)N2CCC[C@@H]2C(=O)N[C@@H](CC(=O)O)C(=O)N[C@@H](C(C)C)C(=O)N(C)[C@@H](CCOC)C(=O)N[C@@H](Cc2ccc(O)cc2)C(=O)N2CCCC[C@@H]2C(=O)N[C@@H](Cc2c[nH]c3ccccc23)C(=O)N[C@@H](Cc2ccc(O)cc2)C(=O)N[C@@H](CC(C)C)C(=O)N[C@H](C(=O)NCC(N)=O)CSCC(=O)N[C@@H](Cc2ccc(F)cc2)C(=O)N(C)[C@@H](Cc2ccccc2)C(=O)N1C [Example 9220] ({CH2CO}-[Phe(4-F)][NMeF][NMeNle][dP]DV[NMehSer](Me)Y[dPip]WYLCG-NH2; thioether N-13)
pIC50 [1]: 6.00 to 7.00

CCCC[C@H]1C(=O)N2CCC[C@@H]2C(=O)N[C@@H](CC(=O)O)C(=O)N[C@@H](C(C)C)C(=O)N(C)[C@@H](CCOC)C(=O)N[C@@H](Cc2ccc(O)cc2)C(=O)N2CCC[C@@H]2C(=O)N[C@@H](Cc2c[nH]c3ccccc23)C(=O)N[C@@H](Cc2ccc(O)cc2)C(=O)N[C@@H](CCCN)C(=O)N[C@H](C(=O)NCC(N)=O)CSCC(=O)N[C@@H](Cc2ccc(F)cc2)C(=O)N(C)[C@@H](Cc2ccccc2)C(=O)N1C [Example 9221] ({CH2CO}-[Phe(4-F)][NMeF][NMeNle][dP]DV[NMehSer](Me)Y[dP]WY[Orn]CG-NH2; thioether N-13)
pIC50 [1]: 6.00 to 7.00

CCCC[C@H]1C(=O)N2CCC[C@@H]2C(=O)N[C@@H](CC(=O)O)C(=O)N[C@@H](C(C)C)C(=O)N(C)[C@@H](CCOC)C(=O)N[C@@H](Cc2ccc(O)cc2)C(=O)N2CCCC[C@@H]2C(=O)N[C@@H](Cc2c[nH]c3ccccc23)C(=O)N[C@@H](Cc2ccc(O)cc2)C(=O)N[C@@H](CCCN)C(=O)N[C@H](C(=O)NCC(N)=O)CSCC(=O)N[C@@H](Cc2ccc(F)cc2)C(=O)N(C)[C@@H](Cc2ccccc2)C(=O)N1C [Example 9222] ({CH2CO}-[Phe(4-F)][NMeF][NMeNle][dP]DV[NMehSer](Me)Y[dPip]WY[Orn]CG-NH2; thioether N-13)
pIC50 [2]: 6.84

CCCC[C@H]1C(=O)N2CCC[C@@H]2C(=O)N[C@@H](CC(=O)O)C(=O)N[C@@H](C(C)C)C(=O)N(C)[C@@H](CCOC)C(=O)N[C@@H](CCC(N)=O)C(=O)N2CCC[C@@H]2C(=O)N[C@@H](Cc2c[nH]c3ccccc23)C(=O)N[C@@H](Cc2ccc(O)cc2)C(=O)N[C@@H](CC(C)C)C(=O)N[C@H](C(=O)NCC(N)=O)CSCC(=O)N[C@@H](Cc2ccc(F)cc2)C(=O)N(C)[C@@H](Cc2ccccc2)C(=O)N1C [Example 9223] ({CH2CO}-[Phe(4-F)][NMeF][NMeNle][dP]DV[NMehSer](Me)Q[dP]WYLCG-NH2; thioether N-13)
pIC50 [1]: 6.00 to 7.00

CCCC[C@H]1C(=O)N2CCC[C@@H]2C(=O)N[C@@H](CC(=O)O)C(=O)N[C@@H](C(C)C)C(=O)N(C)[C@@H](CCOC)C(=O)N[C@@H](CCC(N)=O)C(=O)N2CCCC[C@@H]2C(=O)N[C@@H](Cc2c[nH]c3ccccc23)C(=O)N[C@@H](Cc2ccc(O)cc2)C(=O)N[C@@H](CC(C)C)C(=O)N[C@H](C(=O)NCC(N)=O)CSCC(=O)N[C@@H](Cc2ccc(F)cc2)C(=O)N(C)[C@@H](Cc2ccccc2)C(=O)N1C [Example 9224] ({CH2CO}-[Phe(4-F)][NMeF][NMeNle][dP]DV[NMehSer](Me)Q[dPip]WYLCG-NH2; thioether N-13)
pIC50 [1]: 6.00 to 7.00
